Patent US20250163104A1, “MACROCYCLIC IMMUNOMODULATORS” (priority 2021, published 2025)
Where a SMILES comes first, the peptide text is derived from it. Bridges are numbered along the chain shown (N, C = ends). [ ]: non-standard residue; d: D form. The star is where a group is joined. Phe(4-COOH) = N[C@@H](Cc1ccc(C(=O)O)cc1)C(=O)O; Bip = N[C@@H](Cc1ccc(-c2ccccc2)cc1)C(=O)O; Phe(3-OMe) = COc1cccc(C[C@H](N)C(=O)O)c1; Phe(3-Me) = Cc1cccc(C[C@H](N)C(=O)O)c1; 4Pal = N[C@@H](Cc1ccncc1)C(=O)O; Cit = NC(=O)NCCC[C@H](N)C(=O)O; Carboxymethyl = O=C(O)C*; Nle = CCCC[C@H](N)C(=O)O; Orn = NCCC[C@H](N)C(=O)O; Dab = NCC[C@H](N)C(=O)O; Dap = NC[C@H](N)C(=O)O

biological target: T1, human PD-1 / PD-L1-Ig binding on Jurkat cell line over-expressing human PD-1 (Jurkat-PD-1) (Homo sapiens, UniProt Q15116); assay: Jurkat-PD-1 Cell Binding High-Content Screening Assay (CBA); format: cell-based; conditions: Jurkat-PD-1 cells, PE-labeled PD-L1-Ig 20 nM final; read-out: Jurkat HPD1_PDL1 IC50
T1 construct: expressed in transfected cells; host or cells: Jurkat
T1 sequence (Q15116 25-288): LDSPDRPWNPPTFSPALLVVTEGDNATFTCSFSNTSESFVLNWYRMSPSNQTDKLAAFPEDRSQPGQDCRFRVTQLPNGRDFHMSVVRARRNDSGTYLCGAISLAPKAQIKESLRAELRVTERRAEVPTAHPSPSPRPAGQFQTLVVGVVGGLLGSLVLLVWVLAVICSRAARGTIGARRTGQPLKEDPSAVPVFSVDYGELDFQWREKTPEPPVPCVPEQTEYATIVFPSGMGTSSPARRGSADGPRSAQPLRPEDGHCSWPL
Summary of the method: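 Jurkat cells over-expressing human PD-1, in DMEM/10% FCS, pre-incubated with compound 2 h at 37° C. PE-labeled human PD-L1-Ig (20 nM final) added for 1 h; cells fixed in paraformaldehyde with Hoechst 33342 nuclear stain, washed, and bound fluorescence quantified by high-content imaging.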

SMILES | IC50 [nM]
CCCC[C@@H]1NC(=O)[C@H](CCN)NC(=O)[C@@H](CC(C)C)NC(=O)[C@H](CCCN)NC(=O)[C@H]([C@@H](C)CC)NC(=O)[C@H](Cc2ccc(-c3ccccc3)cc2)NC(=O)[C@H](C(C)C)NC(=O)[C@H](Cc2c[nH]c3ccccc23)NC(=O)[C@H](CC(=O)O)NC(=O)[C@H](Cc2ccc(O)cc2)NC(=O)[C@H](Cc2ccc(OCC(=O)O)cc2)NC(=O)CSC[C@@H](C(=O)N[C@@H](C)C(N)=O)NC(=O)[C@H]([C@@H](C)O)NC(=O)[C@H](C(C)C)NC1=O [Compound 1168] ({CH2CO}-Y(Carboxymethyl)YDWV[Bip]I[Orn][dL][Dab][Nle]VTCA-NH2; thioether N-14) | 26.3
CCCC[C@@H]1NC(=O)[C@H](CCN)NC(=O)[C@@H](CC(C)C)NC(=O)[C@H](CCCN)NC(=O)[C@H](C(C)C)NC(=O)[C@H](Cc2ccc(-c3ccccc3)cc2)NC(=O)[C@H](C(C)C)NC(=O)[C@H](Cc2c[nH]c3ccccc23)NC(=O)[C@H](CC(=O)O)NC(=O)[C@H](Cc2ccc(O)cc2)NC(=O)[C@H](CN)NC(=O)CSC[C@@H](C(=O)N[C@@H](C)C(N)=O)NC(=O)[C@H]([C@@H](C)O)NC(=O)[C@H](C(C)C)NC1=O [Compound 1169] ({CH2CO}-[Dap]YDWV[Bip]V[Orn][dL][Dab][Nle]VTCA-NH2; thioether N-14) | 20.7
CCCC[C@@H]1NC(=O)[C@H](CCN)NC(=O)[C@@H](CC(C)C)NC(=O)[C@H](CCCN)NC(=O)[C@H](C(C)C)NC(=O)[C@H](Cc2ccc(-c3ccccc3)cc2)NC(=O)[C@H](C(C)C)NC(=O)[C@H](Cc2c[nH]c3ccccc23)NC(=O)[C@H](CC(=O)O)NC(=O)[C@H](Cc2ccc(O)cc2)NC(=O)[C@H](Cc2ccc(OCC(=O)O)cc2)NC(=O)CSC[C@@H](C(=O)N[C@@H](C)C(N)=O)NC(=O)[C@H]([C@@H](C)O)NC(=O)[C@H](C(C)C)NC1=O [Compound 1170] ({CH2CO}-Y(Carboxymethyl)YDWV[Bip]V[Orn][dL][Dab][Nle]VTCA-NH2; thioether N-14) | 10.8
CCCC[C@@H]1NC(=O)[C@H](CCN)NC(=O)[C@@H](CC(C)C)NC(=O)[C@H](CCCN)NC(=O)[C@H](C(C)C)NC(=O)[C@H](Cc2ccc(-c3ccccc3)cc2)NC(=O)[C@H](C(C)C)NC(=O)[C@H](Cc2c[nH]c3ccccc23)NC(=O)[C@H](CC(=O)O)NC(=O)[C@H](Cc2ccc(O)cc2)NC(=O)[C@H](CC(N)=O)NC(=O)CSC[C@@H](C(=O)N[C@@H](C)C(N)=O)NC(=O)[C@H]([C@@H](C)O)NC(=O)[C@H](C(C)C)NC1=O [Compound 1171] ({CH2CO}-NYDWV[Bip]V[Orn][dL][Dab][Nle]VTCA-NH2; thioether N-14) | 26.4
CC(C)C[C@H]1NC(=O)[C@H](CCCN)NC(=O)[C@H](C(C)C)NC(=O)[C@H](Cc2ccc(-c3ccccc3)cc2)NC(=O)[C@H](C(C)C)NC(=O)[C@H](Cc2c[nH]c3ccccc23)NC(=O)[C@H](CC(=O)O)NC(=O)[C@H](Cc2ccc(O)cc2)NC(=O)[C@H](CN)NC(=O)CSC[C@@H](C(=O)N[C@@H](C)C(N)=O)NC(=O)[C@H]([C@@H](C)O)NC(=O)[C@H](C(C)C)NC(=O)[C@H](CC2CCCCC2)NC(=O)[C@H](CCN)NC1=O [Compound 1172] | 6.4
CC(C)C[C@H]1NC(=O)[C@H](CCCN)NC(=O)[C@H](C(C)C)NC(=O)[C@H](Cc2ccc(-c3ccccc3)cc2)NC(=O)[C@H](C(C)C)NC(=O)[C@H](Cc2c[nH]c3ccccc23)NC(=O)[C@H](CC(=O)O)NC(=O)[C@H](Cc2ccc(O)cc2)NC(=O)[C@H](Cc2ccc(OCC(=O)O)cc2)NC(=O)CSC[C@@H](C(=O)N[C@@H](C)C(N)=O)NC(=O)[C@H]([C@@H](C)O)NC(=O)[C@H](C(C)C)NC(=O)[C@H](CC2CCCCC2)NC(=O)[C@H](CCN)NC1=O [Compound 1173] | 9.7
CCCC[C@@H]1NC(=O)[C@H](CCCNC(=N)N)NC(=O)[C@@H](CC(C)C)NC(=O)[C@H](CCCN)NC(=O)[C@H](CCCNC(N)=O)NC(=O)[C@H](Cc2ccc(-c3ccccc3)cc2)NC(=O)[C@H](C(C)C)NC(=O)[C@H](Cc2c[nH]c3ccccc23)NC(=O)[C@H](CC(=O)O)NC(=O)[C@H](Cc2ccc(O)cc2)NC(=O)[C@H](CN)NC(=O)CSC[C@@H](C(=O)N[C@@H](C)C(N)=O)NC(=O)[C@H]([C@@H](C)O)NC(=O)[C@H](C(C)C)NC1=O [Compound 1175] ({CH2CO}-[Dap]YDWV[Bip][Cit][Orn][dL]R[Nle]VTCA-NH2; thioether N-14) | 82
CCCC[C@@H]1NC(=O)[C@H](CCCNC(=N)N)NC(=O)[C@@H](CC(C)C)NC(=O)[C@H](CCCN)NC(=O)[C@H](CCCNC(N)=O)NC(=O)[C@H](Cc2ccc(-c3ccccc3)cc2)NC(=O)[C@H](C(C)C)NC(=O)[C@H](Cc2c[nH]c3ccccc23)NC(=O)[C@H](CC(=O)O)NC(=O)[C@H](Cc2ccc(O)cc2)NC(=O)[C@H](Cc2ccc(OCC(=O)O)cc2)NC(=O)CSC[C@@H](C(=O)N[C@@H](C)C(N)=O)NC(=O)[C@H]([C@@H](C)O)NC(=O)[C@H](C(C)C)NC1=O [Compound 1176] ({CH2CO}-Y(Carboxymethyl)YDWV[Bip][Cit][Orn][dL]R[Nle]VTCA-NH2; thioether N-14) | 75.7
CCCC[C@@H]1NC(=O)[C@H](CCCNC(=N)N)NC(=O)[C@@H](CC(C)C)NC(=O)[C@H](CCCN)NC(=O)[C@H](CCCNC(N)=O)NC(=O)[C@H](Cc2ccc(-c3ccccc3)cc2)NC(=O)[C@H](C(C)C)NC(=O)[C@H](Cc2c[nH]c3ccccc23)NC(=O)[C@H](CC(=O)O)NC(=O)[C@H](Cc2ccc(O)cc2)NC(=O)[C@H](CC(N)=O)NC(=O)CSC[C@@H](C(=O)N[C@@H](C)C(N)=O)NC(=O)[C@H]([C@@H](C)O)NC(=O)[C@H](C(C)C)NC1=O [Compound 1177] ({CH2CO}-NYDWV[Bip][Cit][Orn][dL]R[Nle]VTCA-NH2; thioether N-14) | 78.9
Cc1cccc(C[C@@H]2NC(=O)[C@H](CC(=O)O)NC(=O)[C@H](Cc3ccc(C(=O)O)cc3)NC(=O)[C@H](Cc3ccncc3)NC(=O)CSC[C@@H](C(=O)N[C@@H](C)C(N)=O)NC(=O)[C@H]([C@@H](C)O)NC(=O)[C@H](C(C)C)NC(=O)[C@H](CC(C)C)NC(=O)[C@H](CCN)NC(=O)[C@@H](CC(C)C)NC(=O)[C@H](CCCN)NC(=O)[C@H](CCCNC(N)=O)NC(=O)[C@H](Cc3ccc(-c4ccccc4)cc3)NC(=O)[C@H](C(C)C)NC2=O)c1 [Compound 1178] ({CH2CO}-[4Pal][Phe(4-COOH)]D[Phe(3-Me)]V[Bip][Cit][Orn][dL][Dab]LVTCA-NH2; thioether N-14) | 4.1
COc1cccc(C[C@@H]2NC(=O)[C@H](CC(=O)O)NC(=O)[C@H](Cc3ccc(C(=O)O)cc3)NC(=O)[C@H](Cc3ccncc3)NC(=O)CSC[C@@H](C(=O)N[C@@H](C)C(N)=O)NC(=O)[C@H]([C@@H](C)O)NC(=O)[C@H](C(C)C)NC(=O)[C@H](CC(C)C)NC(=O)[C@H](CCN)NC(=O)[C@@H](CC(C)C)NC(=O)[C@H](CCCN)NC(=O)[C@H](CCCNC(N)=O)NC(=O)[C@H](Cc3ccc(-c4ccccc4)cc3)NC(=O)[C@H](C(C)C)NC2=O)c1 [Compound 1179] ({CH2CO}-[4Pal][Phe(4-COOH)]D[Phe(3-OMe)]V[Bip][Cit][Orn][dL][Dab]LVTCA-NH2; thioether N-14) | 5.8
CC[C@H](C)[C@@H]1NC(=O)[C@H](Cc2ccc(-c3ccccc3)cc2)NC(=O)[C@H](C(C)C)NC(=O)[C@H](Cc2cccc(C)c2)NC(=O)[C@H](CC(=O)O)NC(=O)[C@H](Cc2ccc(C(=O)O)cc2)NC(=O)[C@H](Cc2ccncc2)NC(=O)CSC[C@@H](C(=O)N[C@@H](C)C(N)=O)NC(=O)[C@H]([C@@H](C)O)NC(=O)[C@H](C(C)C)NC(=O)[C@H](CC(C)C)NC(=O)[C@H](CCN)NC(=O)[C@@H](CC(C)C)NC(=O)[C@H](CCCN)NC1=O [Compound 1180] | 8.9
CC[C@H](C)[C@@H]1NC(=O)[C@H](Cc2ccc(-c3ccccc3)cc2)NC(=O)[C@H](C(C)C)NC(=O)[C@H](Cc2cccc(OC)c2)NC(=O)[C@H](CC(=O)O)NC(=O)[C@H](Cc2ccc(C(=O)O)cc2)NC(=O)[C@H](Cc2ccncc2)NC(=O)CSC[C@@H](C(=O)N[C@@H](C)C(N)=O)NC(=O)[C@H]([C@@H](C)O)NC(=O)[C@H](C(C)C)NC(=O)[C@H](CC(C)C)NC(=O)[C@H](CCN)NC(=O)[C@@H](CC(C)C)NC(=O)[C@H](CCCN)NC1=O [Compound 1181] | 12
Cc1cccc(C[C@@H]2NC(=O)[C@H](CC(=O)O)NC(=O)[C@H](Cc3ccc(C(=O)O)cc3)NC(=O)[C@H](Cc3ccncc3)NC(=O)CSC[C@@H](C(=O)N[C@@H](C)C(N)=O)NC(=O)[C@H]([C@@H](C)O)NC(=O)[C@H](C(C)C)NC(=O)[C@H](CC(C)C)NC(=O)[C@H](CCN)NC(=O)[C@@H](CC(C)C)NC(=O)[C@H](CCCN)NC(=O)[C@H](C(C)C)NC(=O)[C@H](Cc3ccc(-c4ccccc4)cc3)NC(=O)[C@H](C(C)C)NC2=O)c1 [Compound 1182] ({CH2CO}-[4Pal][Phe(4-COOH)]D[Phe(3-Me)]V[Bip]V[Orn][dL][Dab]LVTCA-NH2; thioether N-14) | 8.2
COc1cccc(C[C@@H]2NC(=O)[C@H](CC(=O)O)NC(=O)[C@H](Cc3ccc(C(=O)O)cc3)NC(=O)[C@H](Cc3ccncc3)NC(=O)CSC[C@@H](C(=O)N[C@@H](C)C(N)=O)NC(=O)[C@H]([C@@H](C)O)NC(=O)[C@H](C(C)C)NC(=O)[C@H](CC(C)C)NC(=O)[C@H](CCN)NC(=O)[C@@H](CC(C)C)NC(=O)[C@H](CCCN)NC(=O)[C@H](C(C)C)NC(=O)[C@H](Cc3ccc(-c4ccccc4)cc3)NC(=O)[C@H](C(C)C)NC2=O)c1 [Compound 1183] ({CH2CO}-[4Pal][Phe(4-COOH)]D[Phe(3-OMe)]V[Bip]V[Orn][dL][Dab]LVTCA-NH2; thioether N-14) | 6.1
